Reference: patent US10085966B2, “Compositions and methods for skin care” (Antipodean Pharmaceuticals, Inc., priority 2008, dated 2018)

Columns and labels:
Assay type in all cases: cell-based
[1] = tested on: matrix metalloproteinase-1 (MMP1); assay: MMP1 expression by human skin fibroblasts in collagenase-fragmented three-dimensional collagen lattices; details: 1 nM, relative to controls (FIG. 3)
Source text: (§1) In photoaged human skin in vivo, skin wrinkling was accompanied by elevated collagenase levels that stimulated collagen fragmentation and ROS production. This Example describes an in vitro model of skin collagen fragmentation that was created and tested for the effects of antioxidant compounds. Materials and methods for preparing three-dimensional extracellular matrix (ECM) collagen lattices, for culturing skin fibroblasts and keratinocytes thereupon, and for treating such matrices with, and characterizing the effects on them of, matrix metalloproteinases (MMPs) have been described (see, e.g., Pilcher et al., 1997 J. Cell Biol. 137:1445; Notary et al., 2000 J. Cell Biol. 149:1309; Netzel-Arnett et al., 2002 J. Biol. Chem. 277:45154; Fisher et al., 2002 Arch Dermatol. 138:1462; Kang et al., 2003 J. Invest. Dermatol. 120:835; Xu et al., 2006 Am J Pathol. 169:823; Xu et al., 2006 J Biol. Chem 281:27389).
(§2) Human skin fibroblasts were cultured in three-dimensional collagen lattices, which mimicked the dermal extracellular matrix. In intact collagen lattices, dermal fibroblasts spread by attachment to the collagen, and produced relatively low levels of the collagenase known as matrix metalloproteinase-1 (MMP1). […]

[2] = tested on: ERK2; assay: UV irradiation-induced ERK2 phosphorylation in cultured human keratinocytes
Source text: (§3) Ultraviolet (UV) irradiation causes skin photoaging and has been reported to activate mitogen-activated protein (MAP) kinase signal transduction pathways. (Fisher et al., 1998 J. Clin. Invest. 101:1432; Kang et al., 2003 J. Invest. Dermatol. 120:835). The mechanism of UV activation of the epidermal growth factor receptor (EGFR) in such pathways remains unknown, although a role for ROS has been implicated (Xu et al., 2006 Am. J. Pathol. 169:823; Xu et al., 2006 J. Biol. Chem. 281:27389). This Example describes an in vitro model of UV-induced signal transduction in human keratinocytes. Publications describing exemplary materials and methods that were adapted to perform these experiments include e.g., Pilcher et al., 1997 J. Cell Biol. 137:1445; Notary et al., 2000 J. Cell Biol. 149:1309; Netzel-Arnett et al., 2002 J. Biol. Chem. 277:45154; Fisher et al., 2002 Arch Dermatol. 138:1462; Kang et al., 2003 J. Invest. Dermatol. 120:835; Xu et al., 2006 Am J Pathol. 169:823; Xu et al., 2006 J Biol. Chem 281:27389.
(§4) Exposure of cultured human keratinocytes to UV irradiation activated ERK MAP kinase, as evidenced by elevated levels of phosphorylated ERK polypeptide in immunoprecipitates from UV-irradiated keratinocytes relative to untreated control keratinocytes. (FIG. 4)

[3] = tested on: human skin fibroblasts; assay: ROS production by human skin fibroblasts in collagenase-fragmented three-dimensional collagen lattices; details: 1 nM, relative to controls (FIG. 2)
Source text: as §1, §2

[4] = tested on: ERK1; assay: UV irradiation-induced ERK1 phosphorylation in cultured human keratinocytes
Source text: as §3, §4

[5] = tested on: ERK MAP kinase; assay: UV irradiation-induced activation of ERK MAP kinase in cultured human keratinocytes; details: pretreatment of keratinocytes with the indicated concentrations (FIG. 4)
Source text: as §3, §4

[6] = exposure to MitoQ10 (FIG. 4 lower panel)
[7] = incubation of keratinocytes prior to UV irradiation (FIG. 4 upper panel)

SMILES: COC1=C(OC)C(=O)C(CCCCCCCCCC[P+](c2ccccc2)(c2ccccc2)c2ccccc2)=C(C)C1=O.CS(=O)(=O)[O-] [MitoQ10 mesylate, [10-(4,5-dimethoxy-2-methyl-3,6-dioxo-1,4-cyclohexadien-1-yl)decyl] triphenylphosphonium methanesulfonate]
- matrix metalloproteinase-1 expression, MMP1 mRNA [1]: significantly reduced
- matrix metalloproteinase-1 expression, MMP1 protein [1]: significantly reduced
- amount of Erk2 in the keratinocytes [2, 6]: not altered
- ERK2 phosphorylation [2, 7]: significantly reduced
- oxidant (ROS) levels [3]: significantly reduced
- amount of Erk1 in the keratinocytes [4, 6]: not altered
- ERK1 phosphorylation [4, 7]: significantly reduced
- activation of ERK MAP kinase by subsequent UV irradiation [5]: substantially inhibited
